These results are taken from ChEMBL document CHEMBL3091332, “Recycling antimalarial leads for cancer: Antiproliferative properties of N-cinnamoyl chloroquine analogues” (Bioorg Med Chem Lett, 2013).

Where only a bound is given, the exact number is not on record here.

One series relates to Caco-2. Briefly: Antiproliferative activity against human Caco2 cells after 2 days by sulforhodamine B assay. Format: functional. Particulars: Caco-2, 48 h. A general note: In SRB staining, fixed cells bind dye roughly in proportion to their protein.
Series [1] in a line: Antiproliferative activity against human MKN28 cells after 2 days by sulforhodamine B assay. Format: functional. The conditions noted are these: MKN-28, 48 h.
Series [2] is described as follows: Antiproliferative activity against human HFF1 cells after 2 days by sulforhodamine B assay. It counts as cell-based, HFF-1.
Another series has as its system MCF7. Briefly: Antiproliferative activity against human MCF7 cells after 2 days by sulforhodamine B assay. It counts as functional. Particulars: MCF7, 48 h.
Series [3] deals with Receptor tyrosine-protein kinase erbB-2 (Homo sapiens, UniProt P04626). Briefly: Inhibition of human HER2.
Receptor tyrosine-protein kinase erbB-2, sequence (P04626 whole entry): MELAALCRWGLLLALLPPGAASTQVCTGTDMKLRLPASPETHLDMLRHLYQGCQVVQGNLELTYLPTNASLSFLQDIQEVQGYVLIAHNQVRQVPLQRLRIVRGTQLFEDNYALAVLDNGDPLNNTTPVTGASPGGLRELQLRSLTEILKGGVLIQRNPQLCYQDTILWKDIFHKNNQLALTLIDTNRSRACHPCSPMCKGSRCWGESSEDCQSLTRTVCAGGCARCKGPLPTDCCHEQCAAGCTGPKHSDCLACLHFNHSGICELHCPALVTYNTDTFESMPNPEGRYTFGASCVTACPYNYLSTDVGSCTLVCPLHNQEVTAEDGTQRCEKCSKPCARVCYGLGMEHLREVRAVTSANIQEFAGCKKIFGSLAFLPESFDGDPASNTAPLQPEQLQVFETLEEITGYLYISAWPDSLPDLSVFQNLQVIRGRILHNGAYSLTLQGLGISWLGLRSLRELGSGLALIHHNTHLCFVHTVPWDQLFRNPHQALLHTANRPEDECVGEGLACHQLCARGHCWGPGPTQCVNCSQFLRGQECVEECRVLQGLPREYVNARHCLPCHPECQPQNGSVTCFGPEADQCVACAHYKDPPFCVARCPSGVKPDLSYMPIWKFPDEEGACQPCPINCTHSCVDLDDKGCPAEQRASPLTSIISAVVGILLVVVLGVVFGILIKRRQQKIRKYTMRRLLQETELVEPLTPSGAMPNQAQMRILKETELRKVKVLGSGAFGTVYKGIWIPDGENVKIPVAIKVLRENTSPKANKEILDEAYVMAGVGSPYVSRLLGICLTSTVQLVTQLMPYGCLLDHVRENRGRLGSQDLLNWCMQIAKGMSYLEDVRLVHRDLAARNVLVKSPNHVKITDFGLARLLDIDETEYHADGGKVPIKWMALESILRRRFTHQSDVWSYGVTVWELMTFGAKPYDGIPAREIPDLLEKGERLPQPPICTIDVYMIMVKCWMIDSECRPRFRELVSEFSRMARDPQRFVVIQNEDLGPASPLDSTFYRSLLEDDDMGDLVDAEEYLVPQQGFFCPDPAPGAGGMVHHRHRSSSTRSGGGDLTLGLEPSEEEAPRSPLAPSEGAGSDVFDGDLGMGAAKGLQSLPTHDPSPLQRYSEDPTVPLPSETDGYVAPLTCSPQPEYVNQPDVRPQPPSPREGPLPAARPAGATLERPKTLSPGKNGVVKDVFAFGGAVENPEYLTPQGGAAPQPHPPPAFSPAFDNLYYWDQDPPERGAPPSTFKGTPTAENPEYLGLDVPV

For orientation: GI50 means the concentration that inhibits growth by half. Higher therefore signals lower sensitivity of the cells. What is called IC50 is the midpoint of a concentration-inhibition curve. A lower IC50 goes with greater potency in that assay.

Regarding `COc1ccc(/C=C/C(=O)NCCCCNc2ccnc3cc(Cl)ccc23)cc1`, the GI50 in the series with Caco-2 is 30.7 µM; in series [1] it was 16.9 µM; with MCF7, 25.2 µM. Also, the GI50 at 48 h in series [2] was > 100 µM.

For `CC(C)c1ccc(/C=C/C(=O)NCCCCNc2ccnc3ccccc23)cc1`, the results for the GI50 (in the series with Caco-2; in series [1]; with MCF7) were 6.75 µM, 5.55 µM and 5.24 µM, respectively. This molecule also registered a GI50 at 48 h in series [2] of 39.1 µM.

As for `COc1ccc(/C=C/C(=O)NCCCCNc2ccncc2)cc1`, the GI50 with Caco-2 is > 100 µM; in series [1], 84.5 µM; in the series on MCF7, 77.1 µM. Moreover, the GI50 at 48 h in series [2] is > 100 µM.

Turning to `O=C(/C=C/c1ccc(F)cc1)NCCCCNc1ccnc2cc(Cl)ccc12`, the GI50 in the series with Caco-2 was found to be 15 µM; in series [1], 11.8 µM; with MCF7 it was 12.5 µM. The GI50 at 48 h in series [2] was > 100 µM.

Take `CCN(CC)CCCC(C)Nc1ccnc2cc(Cl)ccc12` (stereo unspecified) [CHLOROQUINE]: the GI50 in the series on Caco-2 was found to be 38.7 µM; in series [1] it was 44.4 µM; in the series with MCF7, 64.3 µM. The GI50 at 48 h in series [2] was > 100 µM.

For `O=C(/C=C/c1ccc(F)cc1)NCCCNc1ccnc2cc(Cl)ccc12`, the values for the GI50 (with Caco-2; in series [1]; with MCF7) were 44.1 µM, 34.7 µM and 5.24 µM, respectively. The molecule further registered a GI50 at 48 h in series [2] of 44.8 µM.

Take `CC(C)c1ccc(/C=C/C(=O)NCCCCNc2ccnc3cc(Cl)ccc23)cc1`: the GI50 was determined as 11.9 µM in the series on Caco-2, 22.3 µM in series [1] and 8.09 µM in the series with MCF7. In addition, the GI50 at 48 h in series [2] is > 100 µM.

For `COc1cccc2c1C(=O)c1c(O)c3c(c(O)c1C2=O)C[C@@](O)(C(=O)CO)C[C@@H]3O[C@H]1C[C@H](N)[C@H](O)[C@H](C)O1` [DOXORUBICIN], the results for the GI50 (with Caco-2; in series [1]; in the series on MCF7) were 0.32 µM, 0.24 µM and 0.31 µM, respectively. Further, the GI50 at 48 h in series [2] was > 400 µM.

As for `CC(C)c1ccc(/C=C/C(=O)NCCCCCNc2ccnc3cc(Cl)ccc23)cc1`, the GI50 turned out to be 9.16 µM in the series on Caco-2, 14 µM in series [1] and 20.1 µM in the series on MCF7. Besides, the GI50 at 48 h in series [2] was > 100 µM.

Consider `COc1ccc(/C=C/C(=O)OCCCCNc2ccnc3cc(Cl)ccc23)cc1`, for which the GI50 with Caco-2 is 17.3 µM; in series [1], 6.6 µM; with MCF7 it was 5.08 µM. Besides, the GI50 at 48 h in series [2] is 75.2 µM.

For `O=C(/C=C/c1cccc(F)c1)NCCCCNc1ccnc2cc(Cl)ccc12`, the GI50 in the series on Caco-2 amounted to 25.4 µM; in series [1], 15.3 µM; in the series on MCF7, 14.8 µM. Further, in series [2], the GI50 at 48 h was > 100 µM.

Regarding `O=C(/C=C/c1ccccc1[N+](=O)[O-])NCCCCNc1ccnc2cc(Cl)ccc12`, the GI50 in the series on Caco-2 was 11.9 µM; in series [1], 15.1 µM; in the series with MCF7, 13.3 µM. Also, the GI50 at 48 h in series [2] was > 100 µM.

With `O=C(/C=C/c1cccc([N+](=O)[O-])c1)NCCCCNc1ccnc2cc(Cl)ccc12`, the GI50 in the series on Caco-2 amounted to 19.3 µM; in series [1] it was 16.2 µM; in the series with MCF7 it was 59.3 µM. Moreover, the GI50 at 48 h in series [2] was > 100 µM.

With `O=C(/C=C/c1ccccc1)NCCCCNc1ccnc2cc(Cl)ccc12`, the GI50 in the series with Caco-2 was 24.1 µM; in series [1] it was 16.2 µM; in the series with MCF7, 14.8 µM. The GI50 at 48 h in series [2] was > 100 µM.

In series [3], `CCOc1cc2ncc(C#N)c(Nc3ccc(OCc4ccccn4)cc3)c2cc1NC(=O)/C=C/CN(C)C` returned an IC50 of 0.059 µM.

On to `CC(C)c1ccc(/C=C/C(=O)NCCCCN2CCOCC2)cc1`, for which the GI50 in the series with Caco-2 turned out to be 29.6 µM; in series [1], 72.5 µM; with MCF7, 32.7 µM. Besides, the GI50 at 48 h in series [2] is > 100 µM.
